Experimental data from publication PMC10657467, “Mechanically-primed voltage-gated proton channels from angiosperm plants” (Nature Communications, 2023).

Columns and labels:
Assay type in all cases: cell-based
AtHv1 = molecular target: T1, AtHv1 (Arabidopsis thaliana, UniProt Q9SGX2); assay: inside-out patch-clamp of proton currents
T1 construct: gene At1g10800; full-length channel (NP_001321473.1, 236 a.a.) expressed in Xenopus oocytes, after mechanical stimulus
T1 sequence (Q9SGX2 1-236): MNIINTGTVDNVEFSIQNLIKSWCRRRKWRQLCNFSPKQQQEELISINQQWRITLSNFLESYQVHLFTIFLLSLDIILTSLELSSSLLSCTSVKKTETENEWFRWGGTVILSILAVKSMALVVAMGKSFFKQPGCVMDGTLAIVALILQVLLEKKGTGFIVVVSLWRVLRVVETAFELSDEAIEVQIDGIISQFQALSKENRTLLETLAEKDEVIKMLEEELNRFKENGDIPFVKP

SmHv1 = molecular target: T2, SmHv1 (Selaginella moellendorffii, UniProt D8SZW5); assay: inside-out patch-clamp of proton currents
T2 construct: gene SELMODRAFT_128853; full-length channel (EFJ10096.1, 242 a.a.) expressed in Xenopus oocytes, after mechanical stimulus
T2 sequence (D8SZW5 1-242): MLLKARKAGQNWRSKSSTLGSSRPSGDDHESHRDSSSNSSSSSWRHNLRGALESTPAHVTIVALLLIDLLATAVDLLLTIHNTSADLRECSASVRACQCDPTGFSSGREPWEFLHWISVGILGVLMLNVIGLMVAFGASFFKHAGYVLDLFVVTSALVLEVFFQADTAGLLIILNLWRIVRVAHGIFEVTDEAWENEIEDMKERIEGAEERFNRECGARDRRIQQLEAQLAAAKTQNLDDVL

PsHv1 = molecular target: T3, PsHv1 (Picea sitchensis, UniProt B8LLA1); assay: inside-out patch-clamp of proton currents, Hill fit
T3 construct: full-length channel (ABR16431.1, 260 a.a.) expressed in Xenopus oocytes
T3 sequence (B8LLA1 1-260): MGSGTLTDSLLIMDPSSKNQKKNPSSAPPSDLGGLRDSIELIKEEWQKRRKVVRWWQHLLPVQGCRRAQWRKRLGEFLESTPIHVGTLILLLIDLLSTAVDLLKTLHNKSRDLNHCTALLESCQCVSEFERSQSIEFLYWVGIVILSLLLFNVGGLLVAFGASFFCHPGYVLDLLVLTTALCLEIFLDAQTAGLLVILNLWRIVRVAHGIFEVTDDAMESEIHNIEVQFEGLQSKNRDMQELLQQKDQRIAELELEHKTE

SMILES	inside-out patch-clamp of proton currents (AtHv1)	inside-out patch-clamp of proton currents (SmHv1)	IC50 (PsHv1) [µM]
N=C(N)Nc1nc2ccccc2[nH]1 [2GBI, 2-guanidinobenzimidazole]	Despite some small differences in the extent of inhibition by 2GBI, AtHv1, SmHv1, and PsHv1 shared a low sensitivity	Despite some small differences in the extent of inhibition by 2GBI, AtHv1, SmHv1, and PsHv1 shared a low sensitivity	372 ± 28
N=C(N)Nc1nc2ccc(Cl)cc2[nH]1 [ClGBI, 5-chloro-2-guanidinobenzimidazole]	we tested the effects of 2GBI and ClGBI on AtHv1- and SmHv1-mediated currents post-mechanical stimulation	we tested the effects of 2GBI and ClGBI on AtHv1- and SmHv1-mediated currents post-mechanical stimulation	39 ± 8
